Results published in US11851426B2, “Bicyclic amines as CDK2 inhibitors” (Incyte Corporation, priority 2019, dated 2023).

molecular target: CDK2/Cyclin E1 (Homo sapiens (Human), UniProt P24941); assay: CDK2/Cyclin E1 HTRF enzyme activity assay; format: biochemical; conditions: 1 mM ATP; CDK2/Cyclin E1 0.25 nM; 60 minutes at room temperature
Protocol: Example A. CDK2/Cyclin E1 HTRF Enzyme Activity Assay
CDK2/Cyclin E1 enzyme activity assays utilize full-length human CDK2 co-expressed as N-terminal GST-tagged protein with FLAG-Cyclin E1 in a baculovirus expression system (Carna Product Number 04-165). Assays were conducted in white 384-well polystyrene plates in a final reaction volume of 8 μL. CDK2/Cyclin E1 (0.25 nM) was incubated with the compounds of the Examples (40 nL serially diluted in DMSO) in the presence of ATP (50 μM or 1 mM) and 50 nM ULight™-labeled eIF4E-binding protein 1 (THR37/46) peptide (PerkinElmer) in assay buffer (containing 50 mM HEPES pH 7.5, 1 mM EGTA, 10 mM MgCl2, 2 mM DTT, 0.05 mg/mL BSA, and 0.01% Tween 20) for 60 minutes at room temperature. The reactions were stopped by the addition of EDTA and Europium-labeled anti-phospho-4E-BP1 antibody (PerkinElmer), for a final concentration of 15 mM and 1.5 nM, respectively. HTRF signals were read after 1 hour at room temperature on a PHERAstar FS plate reader (BMG Labtech). Data was analyzed with IDBS XLFit and GraphPad Prism 5.0 software using a three or four parameter dose response curve to determine IC50 for each compound.

| IC50 [nM] | SMILES |
| --- | --- |
| ≤ 20 | CC(C)Oc1c(-c2cn[nH]c2)ccc2nc(N[C@H]3CCN(S(C)(=O)=O)C[C@H]3C)nn12 [Example 68, 5-Isopropoxy-N-((3R,4S)-3-methyl-1-(methylsulfonyl)piperidin-4-yl)-6-(1H-pyrazol-4-yl)-[1,2,4]triazolo[1,5-a]pyridin-2-amine] |
| ≤ 20 | CS(=O)(=O)N1CCC(Nc2nc3cnc(-c4cn[nH]c4)c(OC4CCOC(C(F)(F)F)C4)n3n2)CC1 (stereo not shown) [Example 119, N-(1-(Methylsulfonyl)piperidin-4-yl)-6-(1H-pyrazol-4-yl)-5-((2-(trifluoromethyl)tetrahydro-2H-pyran-4-yl)oxy)-[1,2,4]triazolo[1,5-a]pyrazin-2-amine] |
| ≤ 20 | CS(=O)(=O)N1CCC(Nc2nc3cnc(-c4cn[nH]c4)c(N4CC5CCC4C5)n3n2)CC1 (stereo not shown) [Example 131, 5-(2-Azabicyclo[2.2.1]heptan-2-yl)-N-(1-(methylsulfonyl)piperidin-4-yl)-6-(1H-pyrazol-4-yl)-[1,2,4]triazolo[1,5-a]pyrazin-2-amine] |
| ≤ 20 | CCOc1c(-c2cn[nH]c2)ncc2nc(NC3CCN(S(C)(=O)=O)CC3)nn12 [Example 122, 5-Ethoxy-N-(1-(methylsulfonyl)piperidin-4-yl)-6-(1H-pyrazol-4-yl)-[1,2,4]triazolo[1,5-a]pyrazin-2-amine] |
| ≤ 20 | C[C@@H]1CN(S(C)(=O)=O)CC[C@@H]1Nc1nc2ccc(-c3cn[nH]c3)c(OCC3CCC3)n2n1 [Example 76, 5-(Cyclobutylmethoxy)-N-((3R,4S)-3-methyl-1-(methylsulfonyl)piperidin-4-yl)-6-(1H-pyrazol-4-yl)-[1,2,4]triazolo[1,5-a]pyridin-2-amine] |
| ≤ 20 | CC(C)Oc1c(-c2cn[nH]c2)ncn2nc(N[C@H]3CCN(S(=O)(=O)CCCCN4CC[C@@H](C(F)F)C4)C[C@H]3C)nc12 [Example 67, N-((3R,4S)-1-((4-((R)-3-(Difluoromethyl)pyrrolidin-1-yl)butyl)sulfonyl)-3-methylpiperidin-4-yl)-8-isopropoxy-7-(1H-pyrazol-4-yl)-[1,2,4]triazolo[1,5-c]pyrimidin-2-amine] |
| ≤ 20 | CC(C)Oc1c(-c2cn[nH]c2)ncc2nc(NC3CCN(S(C)(=O)=O)CC3)nn12 [Example 141, 5-Isopropoxy-N-(1-(methylsulfonyl)piperidin-4-yl)-6-(1H-pyrazol-4-yl)-[1,2,4]triazolo[1,5-a]pyrazin-2-amine] |
| ≤ 20 | CCCOc1c(-c2cn[nH]c2)ncc2nc(NC3CCN(S(C)(=O)=O)CC3)nn12 [Example 105, N-(1-(Methylsulfonyl)piperidin-4-yl)-5-propoxy-6-(1H-pyrazol-4-yl)-[1,2,4]triazolo[1,5-a]pyrazin-2-amine] |
| ≤ 20 | CC1COCCC1Oc1c(-c2cn[nH]c2)ncc2nc(N[C@H]3CCN(S(C)(=O)=O)C[C@H]3C)nn12 (stereo partly drawn) [Example 111, N-((3R,4S)-3-Methyl-1-(methylsulfonyl)piperidin-4-yl)-5-((3-methyltetrahydro-2H-pyran-4-yl)oxy)-6-(1H-pyrazol-4-yl)-[1,2,4]triazolo[1,5-a]pyrazin-2-amine] |
| ≤ 20 | CS(=O)(=O)N1CCC(Nc2nc3cnc(-c4cn[nH]c4)c(OCC4(C(F)(F)F)CCC4)n3n2)CC1 [Example 120, N-(1-(Methylsulfonyl)piperidin-4-yl)-6-(1H-pyrazol-4-yl)-5-((1-(trifluoromethyl)cyclobutyl)methoxy)-[1,2,4]triazolo[1,5-a]pyrazin-2-amine] |

More lines, now with the values behind:

| SMILES | IC50 [nM] |
| --- | --- |
| CC1CN(S(C)(=O)=O)CCC1Nc1nc2c(N3CCCCC3)c(-c3cn[nH]c3)ncn2n1 (stereo not shown) [Example 50, N-(3-Methyl-1-(methylsulfonyl)piperidin-4-yl)-8-(piperidin-1-yl)-7-(1H-pyrazol-4-yl)-[1,2,4]triazolo[1,5-c]pyrimidin-2-amine] | ≤ 20 |
| C[C@@H]1CN(S(=O)(=O)c2cnn(C)c2)CC[C@@H]1Nc1nc2cnc(-c3cn[nH]c3)c(OC3CCC3)n2n1 [Example 94, 5-Cyclobutoxy-N-((3R,4S)-3-methyl-1-((1-methyl-1H-pyrazol-4-yl)sulfonyl)piperidin-4-yl)-6-(1H-pyrazol-4-yl)-[1,2,4]triazolo[1,5-a]pyrazin-2-amine] | ≤ 20 |
| CC(C)Oc1c(-c2cn[nH]c2)ncn2nc(N[C@H]3CCN(S(C)(=O)=O)C[C@H]3C)nc12 [Example 33, 8-isopropoxy-N-((3R,4S)-3-methyl-1-(methylsulfonyl)piperidin-4-yl)-7-(1H-pyrazol-4-yl)-[1,2,4]triazolo[1,5-c]pyrimidin-2-amine] | ≤ 20 |
| CS(=O)(=O)N1CCC(Nc2nc3c(-c4ccc(C#N)c(F)c4)c(-c4cn[nH]c4)ncn3n2)CC1 [Example 36, 2-fluoro-4-(2-((1-(methylsulfonyl)piperidin-4-yl)amino)-7-(1H-pyrazol-4-yl)-[1,2,4]triazolo[1,5-c]pyrimidin-8-yl)benzonitrile] | ≤ 20 |
| CC(C)COc1c(-c2ccnc(N)c2)ccn2nc(NC3CCN(S(C)(=O)=O)CC3)nc12 [Example 16, 7-(2-aminopyridin-4-yl)-8-isobutoxy-N-(1-(methylsulfonyl)piperidin-4-yl)-[1,2,4]triazolo[1,5-a]pyridin-2-amine] | ≤ 20 |
| CC(C)COc1c(-c2ccnc3[nH]ccc23)ccn2nc(NC3CCN(S(C)(=O)=O)CC3)nc12 [Example 15, 8-isobutoxy-N-(1-(methylsulfonyl)piperidin-4-yl)-7-(1H-pyrrolo[2,3-b]pyridin-4-yl)-[1,2,4]triazolo[1,5-a]pyridin-2-amine] | ≤ 20 |
| CS(=O)(=O)N1CCC(Nc2nc3cc(-c4cn[nH]c4)c(F)cn3n2)CC1 [Example 7, 6-fluoro-N-(1-(methylsulfonyl)piperidin-4-yl)-7-(1H-pyrazol-4-yl)-[1,2,4]triazolo[1,5-a]pyridin-2-amine] | ≤ 20 |
| CCOc1c(-c2cn[nH]c2)ccn2nc(N[C@H]3CCN(S(C)(=O)=O)C[C@H]3C)nc12 [Example 12, 8-ethoxy-N-((3R,4S)-3-methyl-1-(methylsulfonyl)piperidin-4-yl)-7-(1H-pyrazol-4-yl)-[1,2,4]triazolo[1,5-a]pyridin-2-amine] | ≤ 20 |
| CC(C)COc1c(-c2cn[nH]c2)ncn2nc(NC3CCN(S(C)(=O)=O)CC3)nc12 [Example 44, 8-Isobutoxy-N-(1-(methylsulfonyl)piperidin-4-yl)-7-(1H-pyrazol-4-yl)-[1,2,4]triazolo[1,5-c]pyrimidin-2-amine] | ≤ 20 |
| CS(=O)(=O)N1CCC(Nc2nc3c(N4CCCC(F)C4)c(-c4cn[nH]c4)ccn3n2)CC1 (stereo not shown) [Example 31, 8-(3-fluoropiperidin-1-yl)-N-(1-(methylsulfonyl)piperidin-4-yl)-7-(1H-pyrazol-4-yl)-[1,2,4]triazolo[1,5-a]pyridin-2-amine] | ≤ 20 |
| CCN1CCN(CCCS(=O)(=O)N2CC[C@H](Nc3nc4c(OC(C)C)c(-c5cn[nH]c5)ncn4n3)[C@H](C)C2)CC1 [Example 62, N-((3R,4S)-1-((3-(4-Ethylpiperazin-1-yl)propyl)sulfonyl)-3-methylpiperidin-4-yl)-8-isopropoxy-7-(1H-pyrazol-4-yl)-[1,2,4]triazolo[1,5-c]pyrimidin-2-amine] | ≤ 20 |
| C[C@@H]1CN(S(C)(=O)=O)CC[C@@H]1Nc1nc2cnc(-c3cn[nH]c3)c(OC3CC(C(F)F)C3)n2n1 (stereo partly drawn) [Example 108, 5-(3-(Difluoromethyl)cyclobutoxy)-N-((3R,4S)-3-methyl-1-(methylsulfonyl)piperidin-4-yl)-6-(1H-pyrazol-4-yl)-[1,2,4]triazolo[1,5-a]pyrazin-2-amine] | ≤ 20 |
| CCCCOc1c(-c2cn[nH]c2)ncc2nc(NC3CCN(S(C)(=O)=O)CC3)nn12 [Example 106, 5-Butoxy-N-(1-(methylsulfonyl)piperidin-4-yl)-6-(1H-pyrazol-4-yl)-[1,2,4]triazolo[1,5-a]pyrazin-2-amine] | ≤ 20 |
| CC(C)Oc1c(-c2cn[nH]c2)ncn2nc(N[C@H]3CCN(S(=O)(=O)CCCCN(C)C)C[C@H]3C)nc12 [Example 66] | ≤ 20 |
| CS(=O)(=O)N1CCC(Nc2nc3c(OCC(F)(F)F)c(-c4cn[nH]c4)ccn3n2)CC1 [Example 10, N-(1-(methylsulfonyl)piperidin-4-yl)-7-(1H-pyrazol-4-yl)-8-(2,2,2-trifluoroethoxy)-[1,2,4]triazolo[1,5-a]pyridin-2-amine] | ≤ 20 |
| CS(=O)(=O)N1CCC(Nc2nc3cnc(-c4cn[nH]c4)c(N4C5CCC4CC5)n3n2)CC1 [Example 135, 5-(7-Azabicyclo[2.2.1]heptan-7-yl)-N-(1-(methylsulfonyl)piperidin-4-yl)-6-(1H-pyrazol-4-yl)-[1,2,4]triazolo[1,5-a]pyrazin-2-amine] | ≤ 20 |
| CS(=O)(=O)N1CCC(Nc2nc3c(OCCC(F)(F)F)c(-c4cn[nH]c4)ncn3n2)CC1 [Example 46, N-(1-(Methylsulfonyl)piperidin-4-yl)-7-(1H-pyrazol-4-yl)-8-(3,3,3-trifluoropropoxy)-[1,2,4]triazolo[1,5-c]pyrimidin-2-amine] | ≤ 20 |
| CCCCOc1c(-c2cn[nH]c2)ncn2nc(NC3CCN(S(C)(=O)=O)CC3)nc12 [Example 47, 8-Butoxy-N-(1-(methylsulfonyl)piperidin-4-yl)-7-(1H-pyrazol-4-yl)-[1.2.4]triazolo[1,5-c]pyrimidin-2-amine] | ≤ 20 |
